Values quoted from earlier work as cited in patent EP3796908B1, “CONTROLLED RELEASE PROPIVERINE FORMULATIONS” (Santa Farma Ilaç Sanayi A.S., priority 2018, dated 2020).
Read-outs that look alike come from different tables or passages of the source.

Key:
[1] = for maximal plasma concentrations reached after / mean absolute bioavailability: oral administration
[2] = BCS classification
[3] = administration of the ER capsule

CCCOC(C(=O)OC1CCN(C)CC1)(c1ccccc1)c1ccccc1 [propiverine, 1-methyl-4-piperidyl diphenylpropoxy acetate]
mean Cmax [1, 3]: about 70 ng/ml | time in which Cmax is reached after administration [1, 3]: ≤ 9.5 h | maximal plasma concentrations reached after ([1]; immediate release): 2.3 h | mean absolute bioavailability ([1]; immediate release): 40.5% | maximal plasma concentrations reached after ([1]; modified release): 9.9 h | mean absolute bioavailability ([1]; modified release): 60.8 ± 17.3% | solubility [2]: high solubility
